Structures are written as SMILES.

Data set [1] is described as follows: in vitro. It is filed as cell-based, Murine. The following applies: mouse. On the procedure: (§1) The antiproliferative activities of OSe compounds 2, 3, and 4 were assessed against two oligodendrocyte cell lines, namely, 158 N and 158 JP, by the M.T.T. assay using 7-ketocholesterol as reference control (Supporting info, Supplementary Table S1) ([Vejux et al., 2005]; [Nury et al., 2014]). The redox profile of the compounds was evaluated using the H2-DCFDA assay, and their antiapoptotic potential was also assessed by flow cytometry ([Wilhelm et al., 2009]; [Karlsson et al., 2010]; [Shaaban et al., 2018]). Murine oligodendrocytes ([…] and 158JP) were seeded at 240,000 cells per 24-well plates and were grown using the Dulbecco's Modified Eagle Medium supplemented with penicillin antibiotics (1% v/v, streptomycin) and fetal bovine serum (5% v/v) and kept at 37 °C in atmosphere containing 5% CO2. The concentration of 7kc and vitamin E, and the time of treatment were chosen based on data obtained on 7kc treated […] cells. Organoselenium compounds were prepared in DMSO and then diluted with DMEM up to 1 mM. The MTT assay was carried out on […] and 158JP cells after one day of incubation with 7kc (50μM)/different concentrations (0, 1, 10, 20, 50 and 100 μM) of the organic selenides. In live cells, the MTT is reduced to formazan by the succinate dehydrogenase mitochondrial enzyme. The microplate reader Tecan Sunrise (Tecan, Lyon, France) was used for the reading of the plates at 570 nm. The IC50 values and the maximum concentrations without toxicity were estimated for each of the compounds from the respective dose-response curves.

In data set [2] the test system is 158N cells. The experiment in a line: in vitro. It is filed as cell-based, Murine. The following applies: for IC50: mouse, 1 day. On the procedure: as §1
Data set [3] has as its system 158JP cells. Description: in vitro. It counts as cell-based, Murine. The following applies: for IC50: mouse, 1 day. On the procedure: as §1
Data set [4] has as its system 158N cells. The experiment in a line: H2-DCFDA assay of ROS levels by flow cytometry. It is filed as cell-based, Murine. The following applies: Mus musculus, ROS level, mean ± SD, * P < 0.05 vs DMSO; for activity at 10 µM: compound at 10 µM, read-out: H2-DCFDA assay (% of control), C1 (10 µM); for activity at 20 µM: compound at 20 µM, read-out: H2-DCFDA assay (% of control), C2 (20 µM); for activity at 50 µM: compound at 50 µM, read-out: H2-DCFDA assay (% of control), C3 (50 µM). On the procedure: The antiproliferative activities of OSe compounds 2, 3, and 4 were assessed against two oligodendrocyte cell lines, namely, 158 N and 158 JP, by the M.T.T. assay using 7-ketocholesterol as reference control (Supporting info, Supplementary Table S1) ([Vejux et al., 2005]; [Nury et al., 2014]). The redox profile of the compounds was evaluated using the H2-DCFDA assay, and their antiapoptotic potential was also assessed by flow cytometry ([Wilhelm et al., 2009]; [Karlsson et al., 2010]; [Shaaban et al., 2018]). ROS overproduction and O2^•− and were detected with H2-DCFDA assay. Cultured cells were treated with trypsin re-suspended in PBS (10^6 cells/mL) and kept in the dark for half hour at 37 °C with H2-DCFDA at 10 μM and cells were analyzed by flow cytometry. The green fluorescence of 2’,7’- dichlorofluorescein resulting from the oxidation of H2-DCFDA was analyzed by flow cytometry and collected through a 520/10-nm band pass filter. Flomax (Partec) or FlowJo (Tree Star Inc.) software were used for the data analysis.

Data set [5] deals with 158N cells. Description: Antiapoptotic effect: Sub-G1 peak by flow cytometry, PI staining, 7kc as apoptosis stimulator. It is filed as cell-based, Murine. The following applies: 158N cells stained with P.I., 7kc (50 μM) 24 hours, compound at 50, 10, 5 and 1 μM. On the procedure: Furthermore, the antiapoptotic activities of compounds 2, 3, and 4 were also evaluated by flow cytometry in 158N cells stained with P.I. using 7Kc as apoptosis stimulator and the positive reference (Supporting info, Supplementary Figure S1). […] The N-maleanilic acid 3 amphiphilic characters favor its crossing through the cell membrane and, therefore, its better activity.
The analysis of the cell cycle can reveal a Sub-G1 peak, which is representative of apoptotic cells. Cell cycle analysis was detected on 158N cells stained with Propidium Iodide (PI). Flow cytometric analyses were measured on a Galaxy flow cytometer. Cells were prepared by re-suspension in cold ethanol (80%, −20 °C) for 2 hrs.Cells were then washed withphosphate buffer, and re-suspended in phosphate buffer (300 μL) containing PI (80 μg/mL) and RNase (200 μg/mL) and kept for 1 h at 37°C.PBS 2 mL was then added, and Fluorescence of propidium iodide was recorded using a 590 ± 10 nm band filter. The percentage of cells in different cell cycle phase was manually estimated.
Figure S1. Anti-apoptotic effect of the organoselenium derivative 3 on oligodendrocytes. The anti-apoptotic effect was measured by cytometry using propidium iodide. […]

One may read the melting point as the temperature, or range, at which the solid turns liquid. A word on the IC50: it is the midpoint of a concentration-inhibition curve. The low end stands for greater potency, the high end for weaker potency. Regarding `O=C1C=CC(=Nc2ccc([Se]Cc3ccc(Br)cc3)cc2)O1` [Compound 4], the melting point was 185 to 187 °C. In data set [1] (Cytotoxicity assay IC50, 158JP), this compound gave an IC50 at 1 day of no less than 100 µM. Also, the IC50 at 1 day in data set [1] (Cytotoxicity assay IC50, 158N) is no less than 100 µM. Further, the IC50 in data set [2] is greater than 100 µM. Also, the IC50 in data set [3] is greater than 100 µM. Moreover, in data set [4], the activity at 10 µM is 7 ± 4%, the activity at 20 µM was 8 ± 4% and the activity at 50 µM is 11 ± 4%.

Turning to `Nc1ccc([Se]Cc2ccc(Br)cc2)cc1` [Compound 2, 4-((4-bromobenzyl)selanyl)aniline], the melting point was 156 to 158 °C. For the same compound, the IC50 at 1 day in data set [1] (Cytotoxicity assay IC50, 158JP) is no less than 100 µM. In addition, the IC50 at 1 day in data set [1] (Cytotoxicity assay IC50, 158N) is no less than 100 µM. The same compound returned an IC50 in data set [2] greater than 100 µM. The same compound gave an IC50 in data set [3] greater than 100 µM. Besides, in data set [4], the activity at 10 µM worked out at 36 ± 8%, the activity at 20 µM is 41 ± 2% and the activity at 50 µM is 48 ± 2%.

For the compound `O=C(O)C=CC(=O)Nc1ccc([Se]Cc2ccc(Br)cc2)cc1` [Compound 3, 4-((4-((4-bromobenzyl)selanyl)phenyl)amino)-4-oxobut-2-enoic acid], the melting point fell in the range of 215 to 217 °C. In addition, the “formation of SubG1 peak (antiapoptotic activity, in words)” value in data set [5] is “lowered, in a concentration-dependent manner, the formation of SubG1 peak”. The same compound registered an IC50 at 1 day in data set [1] (Cytotoxicity assay IC50, 158JP) of 50 µM. This compound also returned an IC50 at 1 day in data set [1] (Cytotoxicity assay IC50, 158N) of 29 µM. In data set [2], the “cytotoxicity (in words)” value is given as “moderate-low cytotoxicity”. For the same compound, the “cytotoxicity (in words)” value in data set [3] is listed as “moderate-low cytotoxicity”. In addition, in data set [4], the activity at 10 µM was determined as 42 ± 10%, the activity at 20 µM is 36 ± 20% and the activity at 50 µM is 31 ± 20%.

On to `CC(C)CCC[C@@H](C)[C@H]1CC[C@H]2[C@@H]3C(=O)C=C4C[C@@H](O)CC[C@]4(C)[C@H]3CC[C@]12C` [7kc, 7-ketocholesterol, reference compound], for which the IC50 at 1 day stood at 74 µM in data set [1] (Cytotoxicity assay IC50, 158JP) and 37 µM in data set [1] (Cytotoxicity assay IC50, 158N). Moreover, the activity at 50 µM in data set [4] came out at 48 ± 2%.

For the origin of these results see PMC9388736, “Unexpected kinetically controlled organoselenium-based isomaleimide: X-ray structure, hirshfeld surface analysis, 3D energy framework approach, and density functional theory calculation” (Frontiers in Chemistry, 2022).
